From patent US4716222A, “Substrates for hydrolases” (Hoechst Aktiengesellschaft, priority 1984, dated 1987)

Test: Test paper moistened with a blood plasma solution
Conditions: paper impregnated with ethanol solution containing 0.01% substrate
Excerpt: The crude product was purified on a chromatography column (stationary phase: silica gel; mobile phase: CHCl3 +glacial acetic acid 19:1).

## Cc1ccc(S(=O)(=O)NCC(=O)N2CCC[C@H]2C(=O)N[C@@H](CCCNC(=N)N)C(=O)Oc2ccc3c(c2)oc2cc(=O)ccc-2[n+]3[O-])cc1 [Tos-Gly-Pro-Arg-resazurin]
  coloration of test paper: immediate blue-violet coloration
